# In patent US11851389B2, “Cationic lipids for nucleic acid delivery and preparation thereof” (RAMOT AT TEL-AVIV UNIVERSITY LTD., priority 2016, dated 2023):
# “Also recorded” adds a separate entry of the source.
# How the values were obtained:
# [1] = LNP size distribution, PDI and ζ potential by dynamic light scattering; format: physicochemical; conditions: LNP-siRNA formulations; for PDI / Size (d · nm): DLS
# Procedure: LNPs were prepared by using microfluidic micro mixture (Precision NanoSystems, Vancouver, BC, Canada) as described by Cohen et. al. One volume of lipid mixtures (cationic lipid, DSPC, Chol, DMG-PEG and DSPE-PEG Mal at 50:10:38:1.5:0.5 mole ratio, […] total lipid concentration) in ethanol and three volumes of siRNA (1:16 w/w siRNA to lipid) containing acetate buffer solutions were injected through the micro mixer at a combined flow rate of 2 mL/minute (0.5 mL/min for ethanol and 1.5 mL/min for aqueous buffer). For labeled LNPs, 10% of Alexa-647 labeled siRNA were incorporated. For Cy5 labeled particles, 10% Cy5 labeled non-targeted siRNA was used. The resultant mixture was dialyzed against PBS (pH 7.4) for 16 h to remove ethanol.
# LNPs size distribution and ζ potential were determined by dynamic light scattering using a Malvern nano ZS ζ-sizer (Malvern instruments, UK). For size measurements, LNPs were diluted 1:20 in PBS. […] For ζ potential measurements, LNPs were diluted 1:200 in DDW. In some cases, as indicated, size and zeta potential measurements were performed in water.
# Human T cells SupT1 = test: In vitro CD45 gene silencing by LNP-siCD45, flow cytometry; format: cell-based; conditions: LNP with siCD45, 48 hrs or 72 hrs, 0.4, 0.2, 0.1 μM siRNA
# Procedure: (§1) Supt1 or NAR or OVCAR cells were placed in tissue culture 12-wells plates at a density of 1×10^5 cells with 1 mL of full medium. LNPs containing different siRNAs (siPLK1 or siCD45 or siLUC) were added to the wells and the concentration was mentioned in figures. Cells were isolated at different time intervals mentioned in the figures and analyzed by either flow cytometry (for siCD45 knockdown), or qPCR for analysis of PLK1 silencing. Apoptosis assay using PI/Annexin was analyzed by flow cytometry in case of siPLK1 induced cell death.
# FIG. 1 depicts in vitro gene silencing effect lipid 1: Human T cells SupT1 were treated with lipid nanoparticle (LNP) comprising of cationic lipid 1 encapsulated siCD45 for 48 hrs (A) or 72 hrs (B) at different siRNA doses (0.4 μM, 0.2 μM, 0.1 μM).
# [2] = test system: Drug resistant human ovarian carcinoma cells (NAR); test: PLK-1 expression by qPCR after LNP-siPLK-1 or LNP-siLuc; format: cell-based; conditions: 72 hrs
# Procedure: (§2) The mRNA levels of pololike kinase 1 (PLK1 gene) in cells was quantified by real-time PCR, forty eight or Seventy-two hours post-transfection. Total RNA was isolated using the E-Z RNA purification kit (Biological industries, Beit Haemek, Israel), and 1 μg of RNA from each sample was reverse transcribed into cDNA using the High Capacity cDNA Reverse Transcription Kit (Applied Biosystems, Foster City, CA), Quantification of cDNA (5 ng total) was performed on the step one Sequence Detection System (Applied Biosystems, Foster City, CA) using syber green (Applied Biosystems). GAPDH was chosen as a housekeeping gene.
# as §1
# Drug resistant human ovarian carcinoma cells (NAR) were treated with either LNP-siPLK-1 or LNP-siLuc nanoparticles Lipid 1 LNPs (A); Lipid 10&11 LNPs (B) for 72 hrs and PLK-1 expression was measured by qPCR as described in Example 1.
# [3] = test system: Human ovarian cancer cells (NAR cells); test: Apoptosis by FACS using PI/Annexin after siPLK1-LNPs; format: cell-based; conditions: 48 hr
# Procedure: as §1
# Human ovarian cancer cells (NAR cells) were treated with lipid1/siPLK1 nanoparticles for 48 hr at different siRNA concentrations (0.2 μM and 0.1 μM). Apoptotic cells were analyzed by FACS using PI/Annexin. […] Percentage of early apoptotic cells was higher in cells treated with siPLK1-LNPs at 0.2 uM dose of siPLK1.
# Human ovarian cancer cells (NAR cells) were treated with either lipid10 or lipid 11/siPLK1 nanoparticles for 48 hr at different siRNA concentrations (0.1 μM and 0.05 μM). siLUC-LNPs used as a negative control. Apoptotic cells were analyzed by FACS using PI/Annexin.
# [4] = test system: Human ovarian carcinoma cells (OVCAR 8); test: PLK-1 expression by qPCR after LNP-siPLK1 or siLUC; format: cell-based; conditions: OVCAR 8, 72 hr
# Procedure: as §2, §1
# Human ovarian carcinoma cells (OVCAR 8) were treated with lipid 1 containing LNPs with either siPLK1 or siLUC for 72 hr and PLK-1 expression was measured by qPCR.
# [5] = test system: Spheroids of drug resistant human ovarian carcinoma cells (NAR); test: PLK-1 expression by qPCR in 3D spheroids; format: cell-based; conditions: 72 hr
# Procedure: as §2
# Spheroids of drug resistant human ovarian carcinoma cells (NAR) were treated with LNPs composed of lipid1 and with either siPLK-1 or siLuc s for 72 hr and PLK-1 expression was measured by qPCR. Spheroids are 3D cultures of tumor cells mimicking in vivo tumors.
# HEK 293 cells = test: In vitro expression of mKATE-pDNA, flow cytometry; format: cell-based; conditions: 72 hr
# Procedure: In vitro expression of pDNA in HEK 293 cells: HEK cells were treated with LNPs composed of either lipid1 or lipid 10 encapsulated with mKATE-pDNA at the concentration of 0.6 nM pDNA. After 72 hr, mKATE expression was analyzed by flow cytometry.
# Dose dependent expression of pDNA in HEK 293 cells: HEK cells were treated with LNPs composed of either lipid1 or lipid 10 encapsulated with mKATE-pDNA at different amount pDNA. After 72 hr, mKATE expression was analyzed by flow cytometry.
# [6] = test system: Human colon carcinoma cells (HCT116); test: Toxicity of LNPs with ctl siRNA, XTT cell viability; format: cell-based; conditions: 72 hrs
# Procedure: Human colon carcinoma cells (HCT116) were incubated with LNPs with ctl siRNA (see methods) for 72 hrs. The cell viability was measured by XTT assay. Toxicity of LNPs composed of either lipid 38 or lipid 55 is compared with gold standard LNPs composed of Dlin-MC3-DMA.
# [7] = test system: Human multiple myeloma suspension cells (U266); test: PLK1 expression by qPCR after siPLK1-LNPs; format: cell-based; conditions: U266, 48 hrs, normalized to LNPs-ctl siRNA treated cells
# Procedure: as §2
# Human multiple myeloma suspension cells (U266) were incubated with LNPs containing siPLK1 at different concentrations for 48 hrs. PLK1 expression was measured by qPCR. PLK1-mRNA levels were normalized to LNPs-ctl siRNA treated cells.
# [8] = test system: Human multiple myeloma suspension cells (U266); test: Cell viability after PLK1 silencing, XTT assay; format: cell-based; conditions: U266, 48 hrs
# Procedure: Human multiple myeloma suspension cells (U266) were incubated with siPLK1-LNPs or siCtl-LNPs composed of either lipid 38 or 55 at different concentrations for 48 hrs. Cell viability affected by PLK1 down regulation was measured by XTT assay.
# [9] = test system: Human B-cell lymphoma suspension cells (RPMI-8226); test: Cell viability after PLK1 silencing, XTT assay; format: cell-based; conditions: RPMI-8226, 48 hrs
# Procedure: Human B-cell lymphoma suspension cells (RPMI-8226) were incubated with siPLK1-LNPs or siCtl-LNPs composed of either lipid 38 or 55 at different concentrations for 48 hrs. Cell viability affected by PLK1 down regulation was measured by XTT assay.
# [10] = test system: Human multiple myeloma suspension cells (MM1); test: Cell viability after PLK1 silencing, XTT assay; format: cell-based; conditions: MM1, 48 hrs
# Procedure: Human multiple myeloma suspension cells (MM1) were incubated with siPLK1-LNPs or siCtl-LNPs composed of either lipid 38 or 55 at different concentrations for 48 hrs. Cell viability affected by PLK1 down regulation was measured by XTT assay.
# [11] = test system: Human colon carcinoma cells (HCT 116); test: In vitro expression of LUC pDNA, luminometer; format: cell-based; conditions: HCT 116, LNPs-LUC pDNA with DOPE, Chol, PEG-DMG, 48 hrs
# Procedure: Human colon carcinoma cells (HCT 116) were incubated with LNPs-LUC pDNA at different concentrations for 48 hrs. Luciferase expression was measured by luminometer. Lipofectamine 2000 (Lipo 2000) was used as positive control. LNPs were composed of lipid 38 and different amounts of co-lipid DOPE, along with other co-lipids such as Chol, PEG-DMG.
# [12] = test system: murine macrophage cells (RAW 264.7); test: In vitro delivery of luciferase mRNA, luminometer; format: cell-based; conditions: 18 hrs
# Procedure: Hard to transfect murine macrophage cells (RAW 264.7) were treated with LNPs composed of either Lipid38 or Lipid 54 and formulated with luciferase mRNA at different amounts of mRNA. After 18 hrs luciferase expression was measured by luminometer.
# C57BL6/j mice [13] = test: In vivo delivery of luciferase mRNA to muscle cells, intramuscular, bioluminescence imaging; conditions: i.m., 1 mg/kg body weight
# Procedure: LNPs composed of either lipid 54 or lipid 38 formulated with luciferase mRNA were administered intramuscularly in to C57BL6/j mice at 1 mg/kg body weight. Luciferase expression was measured by bioluminescence imaging system Biospace: (a) after 8 hrs of i.m. administration; and (b) after 24 hrs. […] The expression was still high 24 hrs after the administration of LNPs indicating the efficiency of these lipids in delivering mRNA in vivo.
# C57BL6/j mice [14] = test: In vivo delivery of luciferase mRNA to liver, intravenous, bioluminescence imaging; conditions: intravenously, 1 mg/kg body weight
# Procedure: LNPs composed of either lipid 54 or lipid 38 formulated with luciferase mRNA were administered intravenously into C57BL6/j mice at 1 mg/kg body weight. After 8 hrs, luciferase expression was measured by bioluminescence imaging system Biospace.
# LNPs composed of lipid 38 formulated with luciferase mRNA were administered intravenously into C57BL6/j mice at 1 mg/kg body weight. After 8 hrs and 24 hrs of administration, luciferase expression was measured by bioluminescence imaging system Biospace.
# Cynomolgus monkeys = test: Liver toxicity (serum ALT, AST) in non-human primate; format: in vivo; conditions: single i.v. 0.5 mg/kg, particles with siNC5, serum at 1 and 24 h, compared with MC3
# Procedure: Cynomolgus monkeys (n=2 per group, males) received a single I.v. administration (1 ml/kg) of (0.5 mg/kg) of MC3 particles with siNC5 and lipid 38-based particles with siNC5 (0.5 mg/Kg). At 1 and 24 h post administration serum was collected at and analyzed for ALT, AST (by Roch Cobra Auto analyzer). Each data point is an average of 2 animals±SEM.
compound,measurement,setting,value
"CCCCC/C=C\C/C=C\CCCCCCCCNN(CCCCCCCC/C=C\C/C=C\CCCCC)CCN(C)C [Lipid 1, 2-(1,2-di((9Z,12Z)-octadeca-9,12-dien-1-yl)hydrazinyl)-N,N-dimethylethan-1-amine]",Zeta-potential (mV),[1],18.5 mV
same,PDI,[1],0.14
same,Size (d · nm),[1],45.1 nm
same,CD45 gene down-regulation,Human T cells SupT1,down-regulate CD45 gene in hard to transfect T cells
same,"PLK-1 expression, LNP-siLuc control siRNA",[2],did not affect plk1 expression
same,"PLK-1 expression, LNP-siPLK-1",[2],downregulating the proto-oncogene PLK1 efficiently
same,Percentage of early apoptotic cells,[3]; 0.2 uM dose of siPLK1,higher
same,Apoptosis induced by siPLK1-LNPs,[3]; PI/Annexin FACS,inducing apoptosis in cancer cell
same,Effect on cell cycle of siLUC-LNPs,[3]; control siRNA,no effect on cell cycle
same,"PLK-1 expression, siPLK1-LNPs",[4],efficiently downregulating PLK1 gene compared to dlin-mc3-dma containing LNPs
same,"PLK-1 expression, siPLK1-LNPs",[5],significantly downregulating PLK1 gene compared to siLUC-LNPs
same,mKATE expression,"HEK 293 cells; HEK 293, 0.6 nM pDNA",mKATE expression was observed
same,Dose dependence of mKATE expression,"HEK 293 cells; HEK 293, different amount pDNA",did not show any dose dependent expression
CCCCC/C=C\C/C=C\CCCCCCCCN(CCCCCCCC/C=C\C/C=C\CCCCC)CCOC(=O)CCCN(C)C [Lipid 38],Zeta-potential (mV),[1],6.7 mV
same,PDI,[1],0.08
same,Size (d · nm),[1],59.0 nm
same,Toxicity of LNPs (cell viability),[6],less toxic than LNPs composed of Dlin-MC3-DMA
same,"PLK1 expression, siPLK1-LNPs",[7],efficiently down regulate
same,"Cell viability, siCtl-LNPs",[8],no effect on the cell viability
same,"Cell viability, siPLK1-LNPs",[8],more effect on cell viability compared to Dlin-MC3-DMA LNPs
same,"Cell viability, siCtl-LNPs",[9],no effect on the cell viability
same,"Cell viability, siPLK1-LNPs",[9],dose dependent effect on B-cell lymphoma cancer cell viability
same,"Cell viability, siCtl-LNPs",[10],no effect on the cell viability
same,"Cell viability, siPLK1-LNPs",[10],dose dependent effect on multiple myeloma cancer cell viability
same,Delivery of pDNA to the nucleus,[11],efficiently delivering pDNA to the nucleus
same,Dose dependence of luciferase expression,"[12]; RAW 264.7, different amounts of mRNA",dose dependent expression was observed
same,Luciferase expression,"[12]; RAW 264.7, luciferase mRNA LNPs",efficiently compared to lipid 54-LNPs
same,Luciferase expression after 8 hrs,C57BL6/j mice [13]; 8 hrs,significant amounts of luciferase
same,Luciferase expression after 24 hrs,C57BL6/j mice [13]; 24 hrs,still high
same,"Luciferase expression in liver, 8 hrs versus 24 hrs",C57BL6/j mice [14],high after 8 hrs compared to after 24 hrs
same,Luciferase expression in liver,"C57BL6/j mice [14]; 8 hrs, 1 mg/kg",significant amount of luciferase in mouse liver compared to LNPs composed of lipid 54; also recorded: significant amount of luciferase expression was observed in liver
same,"Liver toxicity (ALT, AST)",Cynomolgus monkeys,No liver toxicity
